Reference: the NIST ThermoML archive (doi:10.1016/j.tca.2005.10.007)
± gives the expanded uncertainty stated by the source.

Details: 101.33 kPa, Liquid, Vibrating tube method

Compound: CC(O)CN (stereo unspecified) [1-amino-2-propanol]
- mass density (278.16 K): 972.17 ± 0.49 kg/m3
- mass density (278.65 K): 971.79 ± 0.49 kg/m3
- mass density (279.14 K): 971.4 ± 0.49 kg/m3
- mass density (279.65 K): 971.01 ± 0.49 kg/m3
- mass density (280.15 K): 970.62 ± 0.49 kg/m3
- mass density (280.65 K): 970.23 ± 0.49 kg/m3
- mass density (281.15 K): 969.84 ± 0.49 kg/m3
- mass density (281.65 K): 969.45 ± 0.49 kg/m3
- mass density (282.15 K): 969.05 ± 0.49 kg/m3
- mass density (282.65 K): 968.66 ± 0.49 kg/m3
- mass density (283.15 K): 968.27 ± 0.49 kg/m3
- mass density (283.65 K): 967.88 ± 0.49 kg/m3
- mass density (284.15 K): 967.49 ± 0.49 kg/m3
- mass density (284.65 K): 967.1 ± 0.49 kg/m3
- mass density (285.15 K): 966.7 ± 0.49 kg/m3
- mass density (285.65 K): 966.31 ± 0.49 kg/m3
- mass density (286.15 K): 965.92 ± 0.49 kg/m3
- mass density (286.64 K): 965.52 ± 0.49 kg/m3
- mass density (287.15 K): 965.13 ± 0.49 kg/m3
- mass density (287.65 K): 964.73 ± 0.49 kg/m3
- mass density (288.15 K): 964.34 ± 0.49 kg/m3
- mass density (288.65 K): 963.95 ± 0.49 kg/m3
- mass density (289.15 K): 963.55 ± 0.49 kg/m3
- mass density (289.65 K): 963.15 ± 0.49 kg/m3
- mass density (290.15 K): 962.76 ± 0.49 kg/m3
- mass density (290.65 K): 962.36 ± 0.49 kg/m3
- mass density (291.15 K): 961.97 ± 0.49 kg/m3
- mass density (291.64 K): 961.57 ± 0.49 kg/m3
- mass density (292.15 K): 961.18 ± 0.49 kg/m3
- mass density (292.65 K): 960.78 ± 0.49 kg/m3
- mass density (293.15 K): 960.38 ± 0.49 kg/m3
- mass density (293.64 K): 959.99 ± 0.49 kg/m3
- mass density (294.14 K): 959.59 ± 0.49 kg/m3
- mass density (294.64 K): 959.19 ± 0.49 kg/m3
- mass density (295.15 K): 958.79 ± 0.49 kg/m3
- mass density (295.65 K): 958.39 ± 0.49 kg/m3
- mass density (296.15 K): 957.99 ± 0.49 kg/m3
- mass density (296.65 K): 957.6 ± 0.49 kg/m3
- mass density (297.15 K): 957.2 ± 0.49 kg/m3
- mass density (297.64 K): 956.8 ± 0.49 kg/m3
- mass density (298.15 K): 956.4 ± 0.49 kg/m3
- mass density (298.65 K): 956 ± 0.49 kg/m3
- mass density (299.15 K): 955.6 ± 0.49 kg/m3
- mass density (299.64 K): 955.2 ± 0.49 kg/m3
- mass density (300.14 K): 954.8 ± 0.49 kg/m3
- mass density (300.64 K): 954.4 ± 0.49 kg/m3
- mass density (301.15 K): 954 ± 0.49 kg/m3
- mass density (301.65 K): 953.59 ± 0.49 kg/m3
- mass density (302.14 K): 953.2 ± 0.5 kg/m3
- mass density (302.65 K): 952.79 ± 0.49 kg/m3
- mass density (303.15 K): 952.39 ± 0.49 kg/m3
- mass density (303.64 K): 951.99 ± 0.49 kg/m3
- mass density (304.15 K): 951.59 ± 0.49 kg/m3
- mass density (304.65 K): 951.18 ± 0.49 kg/m3
- mass density (305.15 K): 950.78 ± 0.48 kg/m3
- mass density (305.64 K): 950.38 ± 0.48 kg/m3
- mass density (306.15 K): 949.98 ± 0.48 kg/m3
- mass density (306.65 K): 949.57 ± 0.48 kg/m3
- mass density (307.15 K): 949.17 ± 0.48 kg/m3
- mass density (307.64 K): 948.77 ± 0.48 kg/m3
- mass density (308.15 K): 948.36 ± 0.48 kg/m3
- mass density (308.65 K): 947.95 ± 0.48 kg/m3
- mass density (309.15 K): 947.55 ± 0.48 kg/m3
- mass density (309.65 K): 947.14 ± 0.48 kg/m3
- mass density (310.15 K): 946.74 ± 0.48 kg/m3
- mass density (310.65 K): 946.33 ± 0.48 kg/m3
- mass density (311.15 K): 945.92 ± 0.48 kg/m3
- mass density (311.64 K): 945.52 ± 0.48 kg/m3
- mass density (312.15 K): 945.11 ± 0.48 kg/m3
- mass density (312.64 K): 944.7 ± 0.5 kg/m3
- mass density (313.15 K): 944.3 ± 0.48 kg/m3
- mass density (313.65 K): 943.89 ± 0.48 kg/m3
- mass density (314.15 K): 943.48 ± 0.48 kg/m3
- mass density (314.65 K): 943.07 ± 0.48 kg/m3
- mass density (315.15 K): 942.66 ± 0.48 kg/m3
- mass density (315.65 K): 942.25 ± 0.48 kg/m3
- mass density (316.15 K): 941.84 ± 0.48 kg/m3
- mass density (316.65 K): 941.43 ± 0.48 kg/m3
- mass density (317.15 K): 941.03 ± 0.48 kg/m3
- mass density (317.65 K): 940.61 ± 0.48 kg/m3
- mass density (318.15 K): 940.2 ± 0.48 kg/m3
- mass density (318.65 K): 939.79 ± 0.48 kg/m3
- mass density (319.14 K): 939.38 ± 0.48 kg/m3
- mass density (319.65 K): 938.96 ± 0.48 kg/m3
- mass density (320.15 K): 938.55 ± 0.48 kg/m3
- mass density (320.64 K): 938.14 ± 0.48 kg/m3
